Measured values: paper PMC3563528, “Ultrashort Cationic Lipopeptides and Lipopeptoids Selectively Induce Cytokine Production in Macrophages” (PLoS ONE, 2013)
Where “and” joins values, the source holds several entries; their conditions need not be identical. Equal values may be shown once. Marks after values point to notes of the source that are not given here.

Tests used:
[1] = test system: human macrophage-like THP-1 cells; experiment: Groα production by ELISA in TC supernatants; assay type: cell-based; conditions: 24 h exposure; for Groα induction (in words): concentrations tested up to 100 µM
Description: (§1) Prior to testing, human monocytic THP-1 cells were differentiated to plastic-adherent macrophage-like THP-1 cells as previously described. The cells were rested for twenty-four hours, then exposed to the amphiphiles of interest for twenty-four hours. Cell free TC supernatants were monitored for the production of chemokines Groα and IL-8 by ELISA as previously described, [34]. The constitutive background level of chemokine Groα was 6.6±1.8 pg/ml, and that of IL-8 was 1.7±0.16 ng/ml. Encouragingly, the majority of compounds were strong inducers of both IL-8 and Groα and increased chemokine levels above background (Figure 2). […] The three amphiphiles with a LysLysLys peptide sequence and lipid tail at least sixteen carbons in length, 5–7, were especially strong inducers of IL-8, increasing the concentration to 5–8 ng/mL (p<0.05) above control at 10 µM of lipopeptide, and up to 13 ng/mL (p<0.01) above control at 50 µM (Figure 2). These amphiphiles compared favourably to LL-37 (1.3 ng/mL of IL-8 above control at 10 µM), despite their brief peptide sequence. […] All lipopeptides with lipid tails shorter than sixteen carbons were unable to induce either IL-8 or Groα at concentrations up to 100 µM (Figure 2, Figure S1).
(§2) ELISA results were obtained from two biological replicates with two technical replicates each and statistical analyses was performed using Student paired t-test. Error bars in the graphs represents standard error of the mean, and a p-value of less that 0.05 was considered to be statistically significant.

[2] = test system: human macrophage-like THP-1 cells; experiment: IL-8 production by ELISA in TC supernatants; assay type: cell-based; conditions: 24 h exposure; for IL-8 induction (in words): concentrations tested up to 100 µM; for IL-8 production: mean ± sem
Description: as §1, §2

[3] = test system: Gram positive strains; conditions: in vitro; cited from earlier work
Excerpt: We have shown that ultrashort lipopeptides and lipopeptoids are able to induce selective cytokine production in human macrophages, despite little structural similarity to any known host defence peptide or CAMP.

[4] = test system: MSSE 81388 CANWARD 2008; parameters: method as in earlier work; conditions: data from previous studies converted into µM; cited from earlier work
[5] = test system: MRSA ATCC 33592; parameters: method as in earlier work; conditions: data from previous studies converted into µM; cited from earlier work
[6] = test system: MRSE (CZ >32) CAN-ICU 61589; parameters: method as in earlier work; conditions: data from previous studies converted into µM; cited from earlier work
[7] = test system: S.aureus ATCC 29213; parameters: method as in earlier work; conditions: data from previous studies converted into µM; cited from earlier work
[8] = test system: human macrophage-like THP-1 cells; experiment: IL-1β production by ELISA in TC supernatants; assay type: cell-based; conditions: 24 h exposure
Description: Figure 3 IL-1β production. Human macrophage-like THP-1 cells were exposed to amphiphiles 4–11 and 14–21, for twenty-four hours. TC supernatants were monitored for IL-1β by ELISA, with results shown in pg/mL. Studies were performed in two independent biological replicates with two technical replicate each, with the data here presented as the mean plus sem. Inset: Expanded results for the negative control and amphiphiles 4–7 at 5 µM and 10 µM.
as §2

[9] = test system: human macrophage-like THP-1 cells; experiment: TNF-α production by ELISA in TC supernatants; assay type: cell-based; conditions: any concentration tested, at or below 100 µM, 24 h exposure
Description: as §2
Supplementary file pone.0054280.s002.tiff: Figure S2 TNF-α production by human macrophage-like THP-1 cells following incubation with amphiphiles 1–21. TC supernatants were monitored for cytokine production via ELISA, and results are reported in pg/mL. All studies were performed in two independent biological replicates with two technical replicates each. (TIFF) Click here for additional data file.

[10] = 50 µM amphiphile, two biological replicates with two technical replicates each
[11] = 50 µM amphiphile, mean ± sem, two biological replicates with two technical replicates each

| Substance | Groα induction (in words) [1] | IL-8 induction (in words) [2] | Antimicrobial activity (MIC) [4] [µM] | Antimicrobial activity (MIC) [5] [µM] | Antimicrobial activity (MIC) [6] [µM] | Antimicrobial activity (MIC) [7] | also measured |
| --- | --- | --- | --- | --- | --- | --- | --- |
| C16-NLysGlyNLys-NH2 [compound 13] | inactive | inactive | – | – | – | – | – |
| C20-LysGlyLys-NH2 [compound 3] | – | failed to significantly increase IL-8 production | – | – | – | – | – |
| C11-NLysGlyNLys-NH2 [compound 12] | inactive | inactive | – | – | – | – | – |
| C20-HarHarHar-NH2 [compound 11] | – | – | – | – | – | – | IL-8 production [2, 10]: up to 10 ng/mL |
| C20-NHarNHarNHar-NH2 [compound 21] | strongest inducer | moderate inducer | 6.9 | 14 | 6.9 | 6.9 µM | Groα production [1, 11]: 996 ± 4 pg/mL and 1000 pg/mL; Groα production ([1]; 100 µM amphiphile): 200 pg/mL; MIC [3]: ≤ 16 µg/mL; IL-8 production ([2]; 50 and 100 µM amphiphile): 6 ± 0.8 ng/mL |
| C16OH-NHarNHarNHar-NH2 [compound 20] | moderate inducers | moderate inducers | – | – | – | – | IL-1β induction (in words) [8]: did not induce; TNF-α induction (in words) [9]: did not induce |
| LLGDFFRKSKEKIGKEFKRIVQRIKDFLRNLVPRTES-OH [LL-37, human cathelicidin LL-37, natural host defence peptide, positive control, reference compound] | – | – | – | – | – | – | Groα production ([1]; 2.5 µM): 800 pg/mL; IL-8 above control ([2]; 10 µM amphiphile, two biological replicates with two technical replicates each): 1.3 ng/mL |
| C16OH-LysLysLys-NH2 [compound 6] | – | – | 128 | 128 | 128 | 128 µM | Groα production [1, 11]: 670 pg/mL; IL-8 production [2, 10]: 12.5 ± 0.5 ng/mL |
| C16-LysGlyLys-NH2 [compound 1] | – | – | – | – | – | – | IL-8 above control [2, 10]: 0.2 ng/mL |
| C16OH-LysGlyLys-NH2 [compound 2] | – | failed to significantly increase IL-8 production | – | – | – | – | – |
| C16-LysLysLys-NH2 [compound 5] | – | – | <0.25 | 4.1 | <0.25 | 8.1 µM | IL-8 production [2, 10]: 7.7 ± 0.6 ng/mL |
| C11-LysLysLys-NH2 [compound 4] | – | – | 281 | >561 | 281 | 561^a μM | – |
| C20-LysLysLys-NH2 [compound 7] | – | – | 7.7 | 7.7 | 7.7 | 7.7 µM | Increase of IL-1β concentration ([8]; moving from 10 µM to 50 µM): over forty-fold |
| C16OH-HarHarHar -NH2 [compound 10] | – | – | – | – | – | – | IL-8 production [2, 10]: up to 10 ng/mL |
| C16OH-NLysNLysNLys-NH2 [compound 16] | moderate inducers | moderate inducers | – | – | – | – | IL-1β induction (in words) [8]: did not induce; TNF-α induction (in words) [9]: did not induce |
